Results taken from PubChem BioAssay AID179 (DTP/NCI, 2004).
pEC50, pIC50: −log10 of the molar value. Calls of active or inactive are those of the source.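 The calls were made as follows: active = compounds giving half or more protection of infected cells from virus-caused growth loss, again on retest; inactive = the rest.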

Tested on: CEM cells HIV-1 protection, formazan growth assay
Assay: NCI AIDS Antiviral Assay
Conditions: for pIC50: measured here: growth of uninfected CEM cells
In short: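 Category rules: moderately active means at least 50% protection on retest, and confirmed active means 100% protection reproducibly. The underlying data came from a formazan growth assay in HIV-1-infected CEM cells.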

SMILES | pEC50 | pIC50 | outcome
c1cc2cc(c1)CN1CCNCCN(CCNCC1)Cc1cccc(c1)CN1CCNCCN(CCNCC1)C2 | < 4.30 | < 4.30 | –
CC1(C)CC(/C=C\c2coc3ccc(Cl)cc3c2=O)=C(C#N)C(=O)O1 | < 5.12 | < 5.12 | –
COc1cc(NS(C)(=O)=O)ccc1Nc1c2ccccc2nc2ccccc12 | – | – | inactive
O=C(/C=C/c1ccc([N+](=O)[O-])cc1)c1ccccc1 | < 5.39 | < 5.39 | –
O=c1c2ccccc2oc2nc3cc(Cl)ccc3n12 | < 3.70 | < 3.70 | –
O=C(NNC(=O)c1csc(NC(=S)NC2CCCCC2)n1)c1ccccc1 | < 3.70 | 4.84 | –
COc1ccccc1C1C=NNC1 (stereo not drawn) | < 3.70 | 3.97 | –
CO/C=C/CCCNCc1ccccc1 | < 3.34 | < 3.34 | –
COc1ccc(NS(=O)C2CCCCC2)cc1 (stereo not drawn) | < 3.70 | < 3.70 | –
COc1ccc2[nH]c3c(C)c4ccnc(NCCCN(C)CCCNc5ccc([N+](=O)[O-])c6[nH]c7ccccc7c(=O)c56)c4c(C)c3c2c1 | < 7.30 | 7.59 | –
C1=NCCN=Cc2ccccc2NCCNc2ccccc21 | < 3.70 | 4.04 | –
CCOC(=O)C1Sc2c(c(=O)n(C)c3ccccc23)C1=O (stereo not drawn) | < 4.78 | 4.92 | –
CC(=O)/C=C/c1cccc(N=S)c1 | < 5.55 | < 5.55 | –
Nc1nc2n[nH]nc2c(=O)[nH]1 | < 4.05 | 6.52 | –
CCN(CC)CCNc1ccc(C)c2sc3ccccc3c(=O)c12 | < 3.70 | 4.96 | –
O=c1cc(NCCCCCO)[nH]c(=O)[nH]1 | < 3.70 | < 3.70 | –
CC1(C)C2C=C(CCN3CCOCC3)CC1C2 (stereo not drawn) | < 3.70 | < 3.70 | –
O=C(n1c(=O)n(-c2ccc(Cl)cc2)c(=O)n1C(=O)C(Cl)(Cl)Cl)C(Cl)(Cl)Cl | < 3.70 | < 3.70 | –
CCCCCCCCCCCCSSC(=S)OC(C)C | < 3.70 | < 3.70 | –
O=[N+]([O-])c1ccc(N=Nc2c(O)c(N=Nc3cc([N+](=O)[O-])cc([N+](=O)[O-])c3O)cc(N=Nc3cc(S(=O)(=O)O)cc4cc(S(=O)(=O)O)cc(O)c34)c2O)cc1 | 4.78 | 4.30 | –
CN(C)C(=O)c1nnsc1NN=O | < 3.70 | < 3.70 | –
O=C(NC/C(Br)=C/Br)Nc1cnc2ccccc2c1 | < 3.70 | 4.09 | –

SMILES | pEC50 | pIC50 | outcome
CN(C)C(=S)N1C(=S)N(c2ccccc2)C(=Nc2ccccc2)C1=Nc1ccccc1 | < 3.70 | 3.77 | –
CN=C(/N=c1\ssc(=NC)n1C)N(C)C | < 4.15 | 4.30 | –
O=C(O)c1c2c(cc3c(=O)cc(-c4ccccc4)oc13)CCCC2 | – | – | inactive
COC(=O)c1nn2c(=O)[nH]c3ccccc3c2c1C(=O)OC | < 3.25 | 3.48 | –
CN(C)c1ccc(/C=C(\NC(=O)c2ccccc2)C(=O)NCC(=O)O)cc1 | < 4.00 | < 4.00 | –
O=c1[nH]cnc2sc(Nc3ccccc3)nc12 | – | – | inactive
COC(=O)/C=C1\CC(C)C2=C(N1)SCC2=O (stereo not drawn) | < 3.45 | 3.86 | –
Oc1ccc2ccccc2c1C=Nc1ccc(SSc2ccc(N=Cc3c(O)ccc4ccccc34)cc2)cc1 | < 3.70 | 4.52 | –
CC(C)(C)[Si](C)(C)OCC#C[C@@]1(O)CCCCC1CC(Sc1ccccc1)Sc1ccccc1 (stereo partly drawn) | < 3.70 | 4.90 | –
COc1ccc2c(c1)OC[C@@H]1c3cc(O)c4c(OCc5ccccc5)cccc4c3O[C@H]21 | < 4.00 | 4.17 | –
O=C(CCCC[n+]1ccccc1)Sc1ccccc1C(=O)Nc1ccc(S(=O)(=O)c2ccc([N+](=O)[O-])cc2)cc1 | 5.12 | 3.86 | –
CC1=Nc2ccccc2S/C1=C(/C)NNS(=O)(=O)c1ccc(C)cc1 | < 4.27 | < 4.27 | –
CC(C)N1CNC(=O)C12CCN(CC1COc3ccccc3O1)CC2 (stereo not drawn) | < 3.70 | < 3.70 | –
O=C(O)Cn1ccc(=O)c2c([N+](=O)[O-])cccc21 | < 3.70 | < 3.70 | –
C/C(=N\NC(=S)N1CCC1)c1ccccn1 | < 6.70 | 8.28 | –
N#C/C(=C\c1cc(O)c(O)c(O)c1)C(=O)NCCCCNC(=O)/C(C#N)=C/c1cc(O)c(O)c(O)c1 | < 3.70 | 4.21 | –
O=C1Cc2ccccc2CCc2ccsc21 | 4.19 | 4.08 | –
CCc1ccccc1NC(=O)C(=O)CC(=O)c1sc(Nc2ccccc2)nc1C | < 4.05 | 4.27 | –
Cc1ccc(S(=O)(=O)N/N=C(/CC(=O)c2c(C)n([O-])c3ccccc3[n+]2=O)C(=O)Nc2ccccc2C)cc1 | < 4.48 | < 4.48 | –
c1ccc(-c2cn3nc4ccccc4c3nn2)cc1 | < 3.70 | < 3.70 | –
CSCS(=O)C[C@H](CO)NC(=O)/C=C/c1c(C)[nH]c(=O)[nH]c1=O (stereo partly drawn) | < 3.16 | 6.35 | –
CC(C)(C)[Si](C)(C)OCC1OC(n2ccc(=O)[nH]c2=O)C(O[Si](C)(C)C(C)(C)C)[C@@]12N[C@H](C(N)=O)CS2=O (stereo partly drawn) | < 3.70 | 4.91 | –

SMILES | pEC50 | pIC50 | outcome
Clc1cc(Cl)nc(Nc2ccc3c(c2)CCC3)n1 | < 3.70 | 4.55 | –
CC(=O)Nc1ccc(C(=O)CCC(NC(C)=O)(C(=O)O)C(=O)O)cc1 | < 3.70 | < 3.70 | –
[Ni+2].[O-]/C(=N\N=C/c1cccc(F)c1)c1ccncc1.[O-]/C(=N\N=C\c1cccc(F)c1)c1ccncc1 | < 4.00 | 4.42 | –
Cc1ccc(C=C2C(=O)NC(=O)NC2=O)cc1 | < 3.81 | < 3.81 | –
c1ccc2nn(C3CCCCO3)nc2c1 (stereo not drawn) | < 3.70 | < 3.70 | –
OC(CC(O)(C(F)(F)Cl)C(F)(F)Cl)c1ccccc1 (stereo not drawn) | < 3.70 | 4.35 | –
COc1ccc(/C=C/C(=O)C(C)(C)CN2CCCCC2)cc1 | < 3.03 | 4.98 | –
C[C@@H]1C2(O)CC34CC(=O)OC3(C[C@@H](O)[C@H]4C)C1(C)CO2 (stereo partly drawn) | < 3.05 | < 3.05 | –
C=CP(CCP(CCP(C=C)N(CC)CC)c1ccccc1)N(CC)CC (stereo not drawn) | < 5.19 | < 5.19 | –
CCN(CC)C(=O)N[C@@H](Cc1ccccc1)C(=O)NC | < 3.70 | < 3.70 | –
O=C1c2ccccc2C(=O)N1n1c(Cc2ccc([N+](=O)[O-])cc2)n[nH]c1=O | < 3.70 | < 3.70 | –
O=C1c2c(c(-c3ccccc3)c(-c3ccccc3)c(-c3ccccc3)c2-c2ccccc2)C(=O)N1c1cccc(Br)c1 | < 5.48 | < 5.48 | –
CC1OC(n2cnc3c(N)nc(Cl)nc32)C(C)(O)C1O (stereo not drawn) | – | – | inactive
O=S(=O)(O)C(O)CC=C(C(O)S(=O)(=O)O)C(O)S(=O)(=O)O (stereo not drawn) | < 3.70 | 4.09 | –
COc1ccc(OC)c2c1ccc1c(C)c3ccccc3c(C)c12 | < 3.70 | 4.45 | –
O=C(O)c1cc2ccccc2c(I)c1O | < 3.70 | 3.98 | –
CC1(C)CNC[C@@](C)(O)C(=O)[N-]C(C)(C)CNC[C@](C)(O)C(=O)[N-]1.[Ni+2] | < 3.70 | 3.92 | –
COc1ccc(/C=C2\N=C(c3ccccc3)OC2=O)c(OCc2ccccc2)c1 | < 5.01 | < 5.01 | –
[Cl][Ho]([Cl])[Cl] | < 3.79 | < 3.79 | –
CC(C)=CCC/C(C)=C/CC/C(C)=C/C1CCC(=O)C1(C)C (stereo not drawn) | < 4.07 | 4.38 | –
S=c1sc2cscc2s1 | < 4.28 | 4.51 | –
CN=C(SC)N(C)c1nc(=[N+](C)C)ss1 | – | – | inactive

SMILES | pEC50 | pIC50 | outcome
COc1ccc(NC(=O)CC2SC(=Nc3ccccc3C)NC2=O)c([N+](=O)[O-])c1 (stereo not drawn) | – | – | inactive
COc1ccc(-c2nc(N)c(C#N)c3c2CCS(=O)(=O)c2ccc(C)cc2-3)cc1OC | < 3.70 | 4.95 | –
O=C(N=C1[Se]C(=Nc2ccccc2)C(=Nc2ccccc2)N1c1ccccc1)c1ccccc1 | < 3.70 | 3.97 | –
C=C(c1ccccc1)c1ccccc1-c1cc(-c2ccccc2)cc(-c2ccccc2)n1 | < 3.70 | 4.60 | –
CC1=C(C(=O)Nc2cc(F)c(F)cc2F)C(c2ccc([N+](=O)[O-])cc2)C(C(=O)Nc2cc(F)c(F)cc2F)=C(C)N1 | < 4.11 | 4.14 | –
CCOC(=O)CCN1C(=O)c2ccc(NC(=O)C(=O)O)cc2S1(=O)=O | < 3.70 | < 3.70 | –
CCOP(=O)(OCC)C(=C1C=C(C(C)(C)C)C(=O)C(C(C)(C)C)=C1)P(=O)(OCC)OCC | < 3.70 | 6.03 | –
O=Cc1cc2sc(C=O)cc2s1 | – | – | inactive
COc1cc(C[C@H]2c3cc(OC)c(OC)cc3CCN2C)c(Oc2cc3c(cc2OC)-c2c(OC)c(OC)cc4c2[C@H](C3)N(C)CC4)cc1OC | – | – | inactive
O=c1c2c(c1=O)-c1ccccc1CN2 | < 3.70 | < 3.70 | –
Cc1oc2cc(O)ccc2c(=O)c1-c1ccccc1Br | < 3.70 | 4.78 | –
CC(=O)N(C(=O)CC(=O)NN)c1ccc(Cl)cc1 | – | – | inactive
NCCc1cc2c3c(c1)CCCN3CCC2 | < 3.70 | 4.95 | –
O=C(/C(=C/c1ccc([N+](=O)[O-])cc1)c1ccccc1)c1ccccc1 | < 5.08 | 5.28 | –
CN(CC1NCCCC1O)C12CC3CC(CC(C3)C1)C2 (stereo not drawn) | < 3.05 | < 3.05 | –
Cc1ccc(N2CCC3(CC2)OCCO3)cc1 | – | – | inactive
O=C1/C(=C/c2ccc(O)cc2)CCc2ccccc21 | < 3.70 | 4.68 | –
C=CCCC(OCOCCOC)c1cc(C)c(O[Si](C)(C)C(C)(C)C)c(C)c1 (stereo not drawn) | < 4.30 | 4.53 | –
Clc1ccc2nncc(N3CC3)c2c1 | – | – | inactive
CN(C)CCNC(=O)Cn1ccc(=O)c2c([N+](=O)[O-])cccc21 | < 3.70 | < 3.70 | –
CCN(CC)C(=O)O/N=C/c1ccccc1 | < 3.70 | < 3.70 | –
